Source: patent publication US9221773B2, “Benzamide derivatives” (The Translational Genomics Research Institute, priority 2009, dated 2015)

What was measured:
Type in all cases: cell-based
SKOV3 cell line = experiment: CellTiter-Blue cell viability assay, single agent, SKOV3; conditions: Homo sapiens, SK-OV-3, SKOV3 ovarian cancer cells, 72 hours treatment
Description: (§1) Cell viability in the presence of varying concentrations of the above listed compounds at different time points was used to assess cytotoxicity and the effect of the compounds on cell proliferation. The SKOV3 cell line was originally isolated in 1973 from the ascitic fluid of a patient with an ovarian cancer. SKOV3 is a hypodiploid human cell line. SKOV3 cells are resistant to tumor necrosis factor and to several cytotoxic drugs including diphtheria toxin, cis-platinum and adriamycin. The A2780 cell line is a human ovarian adenocarcinoma cell line originally derived from a biopsy from an untreated patient. The A2780/CP cell line is a line derived from the A2780 cell line selected for resistance to cis-platinum.
(§2) Cell viability was measured by the CellTiter-Blue® cell viability assay Promega (Madison, Wis.). This procedure measures the conversion of the indicator dye (resazurin) to resorufin, an indicator of cell viability. Following treatment, growth media was removed and cells were incubated with 20 μl of CellTiter-Blue® Reagent and growth media for 1-4 hours at 37° C. Fluorescence values were measured at 535/590 nm using a Beckman-Coulter DTX-880 microplate reader.
(§3) Cells were grown to 70% confluency, trypsinized, counted, and seeded in 96 well flat-bottom plates at a final concentration of 2.5×10^3-5×10^3 cells/well (Day 0). Cells were allowed to incubate in growth media for 24 hours to allow for maximum adhesion. Treatment with the test agents or standard agents began on Day 1 and continued for 72 hours. At the 72 hour timepoint, treatment containing media was removed. Viable cell numbers are quantified by the CellTiter-Blue® cell viability assay as described above. Experiments were repeated at least twice with the same concentrations to determine growth inhibitory activity. Results from these studies were used to calculate an IC50 value (concentration of drug that inhibits cell growth by 50 percent of control) for each compound.
(§4) For single agent and combination studies, data from each experiment was collected and expressed as % Cell Expansion using the following calculation: % Cell Expansion=(ftest/fvehicle)×100
(§5) Where ftest is the fluorescence of the tested sample, and fvehicle is the fluorescence of the vehicle in which the drug is dissolved. Dose response graphs and IC50 values were generated using Prism 4 software (GraphPad) using the following equation: […]

A2780 cell line = experiment: CellTiter-Blue cell viability assay, single agent, A2780; conditions: Homo sapiens, A2780 ovarian adenocarcinoma cells, 72 hours treatment
Description: as §1, §2, §3, §4, §5

A2780/CP cell line = experiment: CellTiter-Blue cell viability assay, single agent, A2780/CP; conditions: Homo sapiens, A2780C/P, A2780/CP cis-platinum resistant cells, 72 hours treatment
Description: as §1, §2, §3, §4, §5

| Structure (SMILES) | IC50 (SKOV3 cell line) | IC50 (A2780 cell line) | IC50 (A2780/CP cell line) |
| --- | --- | --- | --- |
| CC(C)C(C(=O)Nc1ncc(C(=O)NO)s1)c1ccccc1 (stereo not shown) [Compound 1, N-hydroxy-2-(3-methyl-2-phenylbutanamido)thiazole-5-carboxamide] | 40 nM |  |  |
| O=C(NO)c1cnc(NC(=O)C2(c3ccccc3)CC2)s1 [Compound 3, N-hydroxy-2-(1-phenylcyclopropanecarboxamido)thiazole-5-carboxamide] | 4100 nM | 1200 nM | 7500 nM |
| CC(C)(C(=O)Nc1ncc(C(=O)NO)s1)c1ccccc1 [Compound 4, N-hydroxy-2-(2-methyl-2-phenylpropanamido)thiazole-5-carboxamide] | 1300 nM | 900 nM | 7500 nM |
| O=C(Cc1ccccc1)Nc1ncc(C(=O)NO)s1 [Compound 5, N-hydroxy-2-(2-phenylacetamido)thiazole-5-carboxamide] | 2100 nM | 300 nM | 1600 nM |
| O=C(CCc1ccccc1)Nc1ncc(C(=O)NO)s1 [Compound 6, N-hydroxy-2-(3-phenylpropanamido)thiazole-5-carboxamide] | 500 nM | 300 nM | 3200 nM |
| COC(C(=O)Nc1ncc(C(=O)NO)s1)c1ccccc1 (stereo not shown) [Compound 7, N-hydroxy-2-(2-methoxy-2-phenylacetamido)thiazole-5-carboxamide] | 70 nM | 40 nM | 20 nM |
| CCC(C(=O)Nc1ncc(C(=O)NO)s1)c1ccc(OC)cc1 (stereo not shown) [Compound 8, N-hydroxy-2-(2-(4-methoxyphenyl)butanamido)thiazole-5-carboxamide] | < 0.1 nM | < 0.1 nM | < 0.1 nM |
| CC(C(=O)Nc1ncc(C(=O)NO)s1)c1ccccc1 (stereo not shown) [Compound 9, N-hydroxy-2-(2-phenylpropanamido)thiazole-5-carboxamide] | 30 nM | 30 nM | 4.8 nM |
| CC(C)C(C(=O)Nc1ncc(C(=O)NO)s1)c1ccc(Cl)cc1 (stereo not shown) [Compound 10, 2-(2-(4-chlorophenyl)-3-methylbutanamido)-N-hydroxythiazole-5-carboxamide] | 4 nM | 1.7 nM | 6.2 nM |
| CC(C)(Cc1ccccc1)C(=O)Nc1ncc(C(=O)NO)s1 [Compound 11, 2-(2,2-dimethyl-3-phenylpropanamido)-N-hydroxythiazole-5-carboxamide] | 7500 nM | 3800 nM | 3800 nM |
| CCC(C(=O)Nc1ncc(C(=O)NO)s1)c1ccc(Br)cc1 (stereo not shown) [Compound 13, 2-(2-(4-bromophenyl)butanamido)-N-hydroxythiazole-5-carboxamide] | 2.5 nM | 0.5 nM | 0.08 nM |
| COCCC(C(=O)Nc1ncc(C(=O)NO)s1)c1ccccc1 (stereo not shown) [Compound 14, N-hydroxy-2-(4-methoxy-2-phenylbutanamido)thiazole-5-carboxamide] | 80 nM | 2.4 nM | 8.7 nM |
| CCC(C(=O)Nc1ncc(C(=O)NO)s1)c1cccc(F)c1 (stereo not shown) [Compound 20, 2-(2-(3-fluorophenyl)butanamido)-N-hydroxythiazole-5-carboxamide] | 4.3 nM | 2.4 nM | 100 nM |
| CC(C)C(C(=O)Nc1ncc(C(=O)NO)s1)c1ccc(O)cc1 (stereo not shown) [Compound 21, N-hydroxy-2-(2-(4-hydroxyphenyl)-3-methylbutanamido)thiazole-5-carboxamide] | 20 nM | 60 nM | 40 nM |
| CCC(C(=O)Nc1ncc(C(=O)NO)s1)c1cccc(OC)c1 (stereo not shown) [Compound 22, N-hydroxy-2-(2-(3-methoxyphenyl)butanamido)thiazole-5-carboxamide] | 30 nM | 600 nM | 300 nM |
| CCC(C(=O)Nc1ncc(C(=O)NO)s1)c1ccccc1OC (stereo not shown) [Compound 23, N-hydroxy-2-(2-(2-methoxyphenyl)butanamido)thiazole-5-carboxamide] | 2300 nM | 100 nM | 500 nM |

Results, then the molecule that gave them:

| IC50 (SKOV3 cell line) | IC50 (A2780 cell line) | IC50 (A2780/CP cell line) | Structure (SMILES) |
| --- | --- | --- | --- |
| 46 nM | 0.5 nM | 4 nM | CCC(C(=O)Nc1ncc(C(=O)NO)s1)c1ccccc1 (stereo not shown) [Compound 2, N-hydroxy-2-(2-phenylbutanamido)thiazole-5-carboxamide] |
| 40 nM | 30 nM | 3 nM | CC(C)C(C(=O)Nc1ccc(C(=O)NO)cc1)c1ccc(Cl)cc1 (stereo not shown) [Compound 12, 4-(2-(4-chlorophenyl)-3-methylbutanamido)-N-hydroxybenzamide] |
| 20 nM | 0.04 nM | 0.3 nM | CCC(C(=O)Nc1ccc(C(=O)NO)cc1)c1ccc(OC)cc1 (stereo not shown) [Compound 15, N-hydroxy-4-(2-(4-methoxyphenyl)butanamido)benzamide] |
| 0.2 nM | < 0.1 nM | 0.9 nM | CCC(C(=O)Nc1ncc(C(=O)NO)s1)c1ccc(-c2ccccc2)cc1 (stereo not shown) [Compound 17, 2-(2-(biphenyl-4-yl)butanamido)-N-hydroxythiazole-5-carboxamide] |
| 100 nM | 440 nM | 140 nM | CCC(C(=O)Nc1ncc(C(=O)NO)s1)c1ccc(-c2cncnc2)cc1 (stereo not shown) [Compound 18, N-hydroxy-2-(2-(4-(pyrimidin-5-yl)phenyl)butanamido)thiazole-5-carboxamide] |
| 8.9 nM | < 0.1 nM | 3 nM | CCC(C(=O)Nc1ncc(C(=O)NO)s1)c1ccc(F)cc1 (stereo not shown) [Compound 19, 2-(2-(4-fluorophenyl)butanamido)-N-hydroxythiazole-5-carboxamide] |
| 30 nM | 20 nM | 17 nM | COCCC(C(=O)Nc1ncc(C(=O)NO)s1)c1ccc(-c2ccccc2)cc1 (stereo not shown) [Compound 24, 2-(2-(biphenyl-4-yl)-4-methoxybutanamido)-N-hydroxythiazole-5-carboxamide] |
| 100 nM | 1.1 nM | 20 nM | CCC(C(=O)Nc1ccc(C(=O)NO)cc1)c1ccc(Br)cc1 (stereo not shown) [Compound 25, 4-(2-(4-bromophenyl)butanamido)-N-hydroxybenzamide] |
| 1.1 nM | 0.3 nM | 1.7 nM | CCC(C(=O)Nc1ccc(C(=O)NO)cc1)c1ccc(-c2ccccc2)cc1 (stereo not shown) [Compound 26, 4-(2-(biphenyl-4-yl)butanamido)-N-hydroxybenzamide] |
| 900 nM | 16 nM | 70 nM | COCCC(C(=O)Nc1ccc(C(=O)NO)cc1)c1ccccc1 (stereo not shown) [Compound 27, N-hydroxy-4-(4-methoxy-2-phenylbutanamido)benzamide] |
